According to ChEMBL document CHEMBL4765377, “Design, synthesis, and evaluation of amphiphilic sofalcone derivatives as potent Gram-positive antibacterial agents” (Eur J Med Chem, 2020):
Converted amounts (≈) assume the structure as drawn. The source made the active and inactive calls. The calls are words filed in the database; no cut-off is given here.

Key:
[1] = test system: Staphylococcus aureus; assay: Antibacterial activity against Staphylococcus aureus ATCC 29213 assessed as reduction in bacterial growth after 24 hrs by CLSI based broth micro dilution method; assay type: functional
[2] = test system: Staphylococcus aureus; assay: Antibacterial activity against methicillin-resistant Staphylococcus aureus N315 assessed as reduction in bacterial growth after 24 hrs by CLSI based broth micro dilution method; assay type: functional
[3] = test system: Staphylococcus aureus; assay: Antibacterial activity against methicillin-resistant Staphylococcus aureus NCTC10442 assessed as reduction in bacterial growth after 24 hrs by CLSI based broth micro dilution method; assay type: functional
[4] = test system: Escherichia coli; assay: Antibacterial activity against Escherichia coli ATCC 25922 assessed as reduction in bacterial growth after 24 hrs by CLSI based broth micro dilution method; assay type: functional
[5] = Hemolytic activity in rabbit RBC after 60 mins; assay type: ADME, cell-based, Oryctolagus cuniculus, Erythrocyte; conditions: rabbit red blood cells (erythrocytes)
[6] = test system: Staphylococcus aureus; assay: Bactericidal activity against Staphylococcus aureus ATCC 29213 assessed as reduction in bacterial load at 4 time of MIC concentration preincubated for 60 mins followed by compound washout further subculturing and measured after 24 hrs by time-kill assay; assay type: functional; conditions: 1 h
[7] = test system: Staphylococcus aureus; assay: Bactericidal activity against Staphylococcus aureus ATCC 29213 assessed as reduction in bacterial load at 8 time of MIC concentration preincubated for 30 mins followed by compound washout further subculturing and measured after 24 hrs by time-kill assay; assay type: functional; conditions: 0.5 h
[8] = test system: Staphylococcus aureus; assay: Bactericidal activity against Staphylococcus aureus ATCC 29213 assessed as reduction in bacterial load at MIC concentration preincubated for 120 mins followed by compound washout further subculturing and measured after 24 hrs by time-kill assay; assay type: functional; conditions: 2 h
[9] = test system: Staphylococcus aureus; assay: Bactericidal activity against Staphylococcus aureus ATCC 29213 assessed as reduction in bacterial load at 2 time of MIC concentration preincubated for 120 mins followed by compound washout further subculturing and measured after 24 hrs by time-kill assay; assay type: functional; conditions: 2 h
[10] = test system: Staphylococcus aureus; assay: Antibacterial activity against Staphylococcus aureus ATCC 29213 assessed as reduction in bacterial growth after 24 hrs in presence of sodium ion by CLSI based broth micro dilution method; assay type: functional
[11] = test system: Staphylococcus aureus; assay: Antibacterial activity against Staphylococcus aureus ATCC 29213 assessed as reduction in bacterial growth after 24 hrs in presence of potassium ion by CLSI based broth micro dilution method; assay type: functional
[12] = test system: Staphylococcus aureus; assay: Antibacterial activity against Staphylococcus aureus ATCC 29213 assessed as reduction in bacterial growth after 24 hrs in presence of calcium ion by CLSI based broth micro dilution method; assay type: functional
[13] = test system: Staphylococcus aureus; assay: Antibacterial activity against Staphylococcus aureus ATCC 29213 assessed as reduction in bacterial growth after 24 hrs in presence of magnesium ion by CLSI based broth micro dilution method; assay type: functional
[14] = test system: Staphylococcus aureus; assay: Antibacterial activity against methicillin-resistant Staphylococcus aureus N315 assessed as reduction in bacterial growth after 24 hrs in presence of sodium ion by CLSI based broth micro dilution method; assay type: functional
[15] = test system: Staphylococcus aureus; assay: Antibacterial activity against methicillin-resistant Staphylococcus aureus N315 assessed as reduction in bacterial growth after 24 hrs in presence of potassium ion by CLSI based broth micro dilution method; assay type: functional
[16] = test system: Staphylococcus aureus; assay: Antibacterial activity against methicillin-resistant Staphylococcus aureus N315 assessed as reduction in bacterial growth after 24 hrs in presence of calcium ion by CLSI based broth micro dilution method; assay type: functional
[17] = test system: Staphylococcus aureus; assay: Antibacterial activity against methicillin-resistant Staphylococcus aureus N315 assessed as reduction in bacterial growth after 24 hrs in presence of magnesium ion by CLSI based broth micro dilution method; assay type: functional
[18] = test system: Staphylococcus aureus; assay: Antibacterial activity against methicillin-resistant Staphylococcus aureus NCTC10442 assessed as reduction in bacterial growth after 24 hrs in presence of sodium ion by CLSI based broth micro dilution method; assay type: functional
[19] = test system: Staphylococcus aureus; assay: Antibacterial activity against methicillin-resistant Staphylococcus aureus NCTC10442 assessed as reduction in bacterial growth after 24 hrs in presence of potassium ion by CLSI based broth micro dilution method; assay type: functional
[20] = test system: Staphylococcus aureus; assay: Antibacterial activity against methicillin-resistant Staphylococcus aureus NCTC10442 assessed as reduction in bacterial growth after 24 hrs in presence of calcium ion by CLSI based broth micro dilution method; assay type: functional
[21] = test system: Staphylococcus aureus; assay: Antibacterial activity against methicillin-resistant Staphylococcus aureus NCTC10442 assessed as reduction in bacterial growth after 24 hrs in presence of magnesium ion by CLSI based broth micro dilution method; assay type: functional
[22] = test system: Escherichia coli; assay: Antibacterial activity against Escherichia coli ATCC 25922 assessed as reduction in bacterial growth after 24 hrs in presence of sodium ion by CLSI based broth micro dilution method; assay type: functional
[23] = test system: Escherichia coli; assay: Antibacterial activity against Escherichia coli ATCC 25922 assessed as reduction in bacterial growth after 24 hrs in presence of potassium ion by CLSI based broth micro dilution method; assay type: functional
[24] = test system: Escherichia coli; assay: Antibacterial activity against Escherichia coli ATCC 25922 assessed as reduction in bacterial growth after 24 hrs in presence of calcium ion by CLSI based broth micro dilution method; assay type: functional
[25] = test system: Escherichia coli; assay: Antibacterial activity against Escherichia coli ATCC 25922 assessed as reduction in bacterial growth after 24 hrs in presence of magnesium ion by CLSI based broth micro dilution method; assay type: functional
[26] = Cytotoxicity against human MDA-MB-231 cells assessed as viability at 3.125 ug/ml after 24 hrs by CCK8 assay relative to control; assay type: cell-based; conditions: at 3.125 µg/mL, read-out: Activity
[27] = Cytotoxicity against human MDA-MB-231 cells assessed as viability at 6.25 ug/ml after 24 hrs by CCK8 assay relative to control; assay type: cell-based; conditions: at 6.25 µg/mL, read-out: Activity
[28] = Cytotoxicity against human MDA-MB-231 cells assessed as viability at 12.5 ug/ml after 24 hrs by CCK8 assay relative to control; assay type: cell-based; conditions: at 12.5 µg/mL, read-out: Activity
[29] = Cytotoxicity against human MDA-MB-231 cells assessed as viability at 25 ug/ml after 24 hrs by CCK8 assay relative to control; assay type: cell-based; conditions: at 25 µg/mL, read-out: Activity
[30] = Cytotoxicity against mouse NCTC clone 929 cells assessed as viability at 3.125 ug/ml after 24 hrs by CCK8 assay relative to control; assay type: cell-based; conditions: at 3.125 µg/mL, read-out: Activity
[31] = Cytotoxicity against mouse NCTC clone 929 cells assessed as viability at 6.25 ug/ml after 24 hrs by CCK8 assay relative to control; assay type: cell-based; conditions: at 6.25 µg/mL, read-out: Activity
[32] = Cytotoxicity against mouse NCTC clone 929 cells assessed as viability at 12.5 ug/ml after 24 hrs by CCK8 assay relative to control; assay type: cell-based; conditions: at 12.5 µg/mL, read-out: Activity
[33] = Cytotoxicity against mouse NCTC clone 929 cells assessed as viability at 25 ug/ml after 24 hrs by CCK8 assay relative to control; assay type: cell-based; conditions: at 25 µg/mL, read-out: Activity
[34] = Cytotoxicity against mouse corneal fibroblast cells assessed as viability at 3.125 ug/ml after 24 hrs by CCK8 assay relative to control; assay type: cell-based; conditions: at 3.125 µg/mL, read-out: Activity
[35] = Cytotoxicity against mouse corneal fibroblast cells assessed as viability at 6.25 ug/ml after 24 hrs by CCK8 assay relative to control; assay type: cell-based; conditions: at 6.25 µg/mL, read-out: Activity
[36] = Cytotoxicity against mouse corneal fibroblast cells assessed as viability at 12.5 ug/ml after 24 hrs by CCK8 assay relative to control; assay type: cell-based; conditions: at 12.5 µg/mL, read-out: Activity
[37] = Cytotoxicity against mouse corneal fibroblast cells assessed as viability at 25 ug/ml after 24 hrs by CCK8 assay relative to control; assay type: cell-based; conditions: at 25 µg/mL, read-out: Activity
[38] = test system: Staphylococcus aureus; assay: Antibacterial activity against Staphylococcus aureus ATCC 29213 assessed as reduction in bacterial growth at 0.5 time of MIC after 14 days passage by CLSI based broth micro dilution method; assay type: functional, organism-based; conditions: time 14.0 day
[39] = test system: Cell membrane; assay: Disruption of bacterial cell membrane in Staphylococcus aureus ATCC 29213 measured for 1 hr by SYTOX green staining based assay
[40] = test system: Cell membrane; assay: Disruption of bacterial cell membrane in methicillin-resistant Staphylococcus aureus NCTC10442 measured for 1 hr by SYTOX green staining based assay
[41] = test system: Cell membrane; assay: Disruption of bacterial cell membrane in Staphylococcus aureus ATCC 29213 at 8 times of MIC measured for 2 hr by propidium iodide and SYTO9 dye based LIVE/DEAD bacterial viability assay
[42] = test system: Staphylococcus aureus; assay: Antibacterial activity against Staphylococcus aureus ATCC 29213 infected in C57BL6 mouse assessed as reduction in bacterial load at 6.56 mmol/L, administered topically at 2 hrs interval for 3 days; assay type: functional; conditions: time 3 day
[43] = test system: Staphylococcus aureus; assay: Antibacterial activity against Staphylococcus aureus ATCC 29213 infected in C57BL6 mouse assessed as reduction in bacterial burden at 6.56 mmol/L, administered topically at 2 hrs interval for 3 days relative to control; assay type: functional; parameters: scale not given: the % may be the effect or the level left; conditions: time 3 day

CC(C)=CCOc1ccc(/C=C/C(=O)c2ccc(OCC=C(C)C)cc2OCC(=O)N[C@@H](CCCNC(=N)N)C(=O)N[C@@H](CCCNC(=N)N)C(N)=O)cc1
MIC [1]: 1.56 µg/mL (≈ 2.05 µM) | MIC [2]: 1.56 µg/mL (≈ 2.05 µM) | MIC [3]: 1.56 µg/mL (≈ 2.05 µM) | MIC [4]: 6.25 µg/mL (≈ 8.2 µM) | HC50 at 1 h [5]: 276 µg/mL | log(activity) [6]: 3.25 | log(activity) [7]: 3.75 | log(activity) [8]: 2.6 | log(activity) [9]: 2.76 | MIC [10]: 1.56 µg/mL | MIC [11]: 1.56 µg/mL | MIC [12]: 1.56 µg/mL | MIC [13]: 1.56 µg/mL | MIC [14]: 1.56 µg/mL | MIC [15]: 1.56 µg/mL | MIC [16]: 1.56 µg/mL | MIC [17]: 1.56 µg/mL | MIC [18]: 1.56 µg/mL | MIC [19]: 1.56 µg/mL | MIC [20]: 1.56 µg/mL | MIC [21]: 1.56 µg/mL | MIC [22]: 12.5 µg/mL | MIC [23]: 6.25 µg/mL | MIC [24]: 6.25 µg/mL | MIC [25]: 6.25 µg/mL | viability at 24 h, 3.125 ug/ml [26]: 95.6% | viability at 24 h, 6.25 ug/ml [27]: 89.3% | viability at 24 h, 12.5 ug/ml [28]: 84.8% | viability at 24 h, 25 ug/ml [29]: 67.7% | viability at 24 h, 3.125 ug/ml [30]: 82% | viability at 24 h, 6.25 ug/ml [31]: 79% | viability at 24 h, 12.5 ug/ml [32]: 69.9% | viability at 24 h, 25 ug/ml [33]: 55.2% | viability at 24 h, 3.125 ug/ml [34]: 98% | viability at 24 h, 6.25 ug/ml [35]: 76.3% | viability at 24 h, 12.5 ug/ml [36]: 64.2% | viability at 24 h, 25 ug/ml [37]: 59.9% | Activity [38]: Active | Activity [39]: Dose-dependent effect | Activity [40]: Dose-dependent effect | Activity [41]: Active | log(activity) [42]: 4.34 | Activity [43]: >99.99%
